The test deals with cultured human mast cells (CHMC). The experiment in a line: CHMC low cell density IgE activation: tryptase assay. Type of test: cell-based. To be noted: IgE activation. The essentials: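 CHMC at 1000–1500 cells/well were preincubated 1 hr at 37° C., stimulated with anti-IgE for 30 minutes at 37° C., then pelleted. Supernatant tryptase was measured with a fluorogenic substrate after 30 min at room temperature, against un-stimulated control wells.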

[1] abbreviates: Homo sapiens, Mast cell, low cell density CHMC, tryptase release, 8 pt, read-out: LD Tryptase, CHMC, IgE, 8 pt.
Where [2] appears, read: Homo sapiens, Mast cell, low cell density CHMC, tryptase, 8 pt, read-out: LD Tryptase, CHMC, IgE, 8 pt.
[3] abbreviates: low cell density, 8 pt, read-out: LD Tryptase, CHMC, IgE, 8 pt.
The mark [4] stands for this setting: Homo sapiens, Mast cell, low cell density CHMC, tryptase, 3 pt, read-out: LD Tryptase, CHMC, IgE, 3 pt.
The mark [5] stands for this setting: Homo sapiens, Mast cell, low cell density, 3 pt, read-out: LD Tryptase, CHMC, IgE, 3 pt.
[6] abbreviates: low cell density CHMC, tryptase readout, 8 pt, read-out: LD Tryptase, CHMC, IgE, 8 pt.
Where [7] appears, read: Homo sapiens, Mast cell, low cell density, 8 pt, read-out: LD Tryptase, CHMC, IgE, 8 pt.
The mark [8] stands for this setting: low cell density, 3 pt, read-out: LD Tryptase, CHMC, IgE, 3 pt.
The mark [9] stands for this setting: low cell density CHMC, tryptase release, 8 pt, read-out: LD Tryptase, CHMC, IgE, 8 pt.

Drawing on patent publication US20220073536A1 (Rigel Pharmaceuticals, Inc., priority 2003, published 2022), this text covers IC50 for 35 compounds.

Like-named read-outs stand apart in the source and are kept apart here. Some results are limits rather than exact numbers.

With `COc1ccc(Nc2nc(Nc3ccc4c(cnn4CCCNS(=O)(=O)C(F)(F)F)c3)ncc2F)cc1Cl` [Compound 840, N4-(3-Chloro-4-methoxyphenyl)-5-fluoro-N2-[1-[3-(N-trifluoromethylsulfonylamino)propyl]indazol-5-yl]-2,4-pyrimidinediamine], the IC50 under setting [1] was less than 10 µM. On to `CCCn1ncc2cc(Nc3ncc(F)c(Nc4ccc5c(c4)NC(=O)C(C)(C)O5)n3)ccc21` [Compound 704, N4-(2,2-Dimethyl-3-oxo-4H-benz[1,4]oxazin-6-yl)-5-fluoro-N2-(1-n-propylindazol-5-yl)-2,4-pyrimidinediamine], for which the IC50 under setting [2] was less than 10 µM. Consider `OCCn1c(C(F)(F)F)nc2cc(Nc3ncc(F)c(Nc4ccc(Cl)c(Cl)c4)n3)ccc21` [Compound 916], for which, under setting [3], the IC50 is less than 10 µM. `COc1cc(Nc2nc(Nc3ccc4c(C)nn(C)c4c3)ncc2F)ccc1F` [Compound 755, N2-(1,3-Dimethylindazol-6-yl)-5-fluoro-N4-(4-fluoro-3-methoxyphenyl)-2,4-pyrimidinediamine]: the IC50 is, setting by setting: under setting [4], less than 10 µM; under setting [2], less than 10 µM. As to `Cc1noc(C)c1Nc1ncc(F)c(Nc2c(C)noc2C)n1` [Compound 528], the IC50 under setting [5] is more than 10 µM. As for “N2- (3-Chloro-4-hydroxy-5-methylphenyl)-N4-[3,4-(difluoromethylenedioxy)phenyl]-5-fluoro-2,4-pyrimidinediamine [Compound 567]”, the IC50 (low cell density CHMC, tryptase release, 8 point, read-out: LD Tryptase, CHMC, IgE, 8 pt) was less than 10 µM. As for `Cc1cc(Nc2ncc(F)c(Nc3ccc4c(n3)NCCO4)n2)ccc1N1CCN(C)CC1` [Compound 1203, N4-(3,4-Dihydro-2H,4H-5-pyrid[1,4]oxazin-6-yl)-5-fluoro-N2-[3-methyl-4-(4-methylpiperazino)phenyl]-2,4-pyrimidinediamine], the IC50 is less than 10 µM (low cell density CHMC, tryptase, 3 pt, read-out: LD Tryptase, CHMC, IgE, 3 pt) and less than 10 µM (low cell density CHMC, tryptase, 8 pt, read-out: LD Tryptase, CHMC, IgE, 8 pt). For the compound `COc1ccc(Nc2nc(Nc3ccc4cnn(C(C)C)c4c3)ncc2F)nc1Cl` [Compound 888], the IC50 under setting [5] is less than 10 µM. In the case of `CCOC(=O)N1CCN(c2ccc(Nc3ncc(F)c(Nc4ccc5c(n4)NC(=O)C(C)(C)O5)n3)cc2)CC1` [Compound 1077, N4-(2,2-Dimethyl-3-oxo-4H-5-pyrid [1,4]oxazin-6-yl)-N2-[4-(4-ethoxycarbonylpiperazino)phenyl]-5-fluoro-2,4-pyrimidinediamine], the IC50 under setting [6] is less than 10 µM. Consider `Cc1cc2c(cnn2C)cc1Nc1ncc(F)c(Nc2ccc(Cl)c(Cl)c2)n1` [Compound 757, N4-(3,4-Dichlorophenyl)-N2-(1,6-dimethylindazol-5-yl)-5-fluoro-2,4-pyrimidinediamine], for which, under setting [4], the IC50 is less than 10 µM. On to `Cc1nc2cc(Nc3ncc(F)c(Nc4ccc5c(c4)NC(=O)C(C)(C)O5)n3)ccc2n1CCCNS(C)(=O)=O` [Compound 963], for which the IC50 under setting [7] was less than 10 µM.

`COc1ccc(Nc2ncc(F)c(Nc3ccc(OC)c(Cl)n3)n2)cc1OC` [Compound 877, N4-(2-Chloro-3-methoxypyrid-6-yl)-N2-(3,4-dimethoxyphenyl)-5-fluoro-2,4-pyrimidinediamine]: under setting [5], the IC50 is less than 10 µM.

For the compound `OCCCn1c(C(F)(F)F)nc2cc(Nc3ncc(F)c(Nc4ccc(Cl)c(Cl)c4)n3)ccc21` [Compound 937], the IC50 by setting is: under setting [5], less than 10 µM; under setting [7], less than 10 µM. Consider `CCCn1ncc2ccc(Nc3ncc(F)c(Nc4ccc(F)c(OC)c4)n3)cc21` [Compound 709, 5-Fluoro-N4-(4-fluoro-3-methoxyphenyl)-N2-(1-n-propylindazol-6-yl)-2,4-pyrimidinediamine], for which the IC50 under setting [2] is less than 10 µM. For `COc1ccc(Nc2nc(Nc3ccc4c(cnn4CCCN)c3)ncc2F)cc1Cl` [Compound 823, N2-[1-(3-Aminopropyl)indazol-5-yl]-N4-(3-chloro-4-methoxyphenyl)-5-fluoro-2,4-pyrimidinediamine], under setting [1], the IC50 was less than 10 µM. With `Fc1cnc(Nc2ccc3c(cnn3CC3CC3)c2)nc1Nc1ccc(Cl)c(Cl)c1` [Compound 735, N2-[1-(Cyclopropylmethyl)indazol-5-yl]-N4-(3,4-dichlorophenyl)-5-fluoro-2,4-pyrimidinediamine], under setting [4], the IC50 was less than 10 µM. `Cc1cc(Nc2nc(Nc3cccc(-c4ncco4)c3)ncc2F)no1` [Compound 524, 5-Fluoro-N4-(5-methylisoxazol-3-yl)-N2-[3-(oxazol-2-yl)phenyl]-2,4-pyrimidinediamine]: the IC50 under setting [5] was less than 10 µM. Consider `COc1ccc(Nc2nc(Nc3ccc4c(c3)[nH]c(=O)n4C)ncc2F)cc1Cl` [Compound 905], for which the IC50 is, setting by setting: under setting [5], less than 10 µM; under setting [7], less than 10 µM. For the compound “N4- (2,2-Dimethyl-3-oxo-4H-5-pyrid[1,4]oxazin-6-yl)-N2- (1-methyl-2-trifluoromethylbenzimidazol-5-yl)-2,4-pyrimidinediamine [Compound 915]”, the IC50 under setting [3] is less than 10 µM. For `CCn1c(C)nc2cc(Nc3ncc(F)c(Nc4ccc5c(c4)NC(=O)[C@H](C)O5)n3)ccc21` [Compound 935], the IC50 by setting is: under setting [5], less than 10 µM; under setting [7], less than 10 µM. For `COc1ccc(Nc2nc(Nc3cc(OC)c(OC)c(OC)c3)ncc2F)nc1N` [Compound 545], under setting [5], the IC50 is less than 10 µM. Turning to `CC(C)Nc1nc(Nc2ccc(N3CCN(C)CC3)c(Cl)c2)ncc1F` [Compound 1205], the IC50 under setting [4] was less than 10 µM. As to `CC1(C)C(=O)Nc2cc(Nc3nc(Nc4ccc5oncc5c4)ncc3F)ccc2S1(=O)=O` [Compound 930], the IC50 under setting [5] is less than 10 µM. Turning to `COc1cc(Nc2nc(Nc3cccc(-c4ncco4)c3)ncc2F)cc(OC)c1OC` [Compound 667], for the setting “Homo sapiens, Mast cell, low cell density CHMC, tryptase release, 3 point, read-out: LD Tryptase, CHMC, IgE, 3 pt”, the IC50 was less than 10 µM. Take “N4- (3,4-Dichlorophenyl)-5-fluoro-[1- (2-hydroxymethyl)-2-trifluoromethylbenzimidazol-5-yl]-2,4-pyrimidinediamine [Compound 920]”: the IC50 runs as follows: under setting [8], less than 10 µM; under setting [3], less than 10 µM. `COc1ccc(Nc2ncc(F)c(Nc3ccc(OC(F)(F)F)c(Cl)c3)n2)c(OC)c1OC` [Compound 671]: the IC50 under setting [4] was less than 10 µM. With `CC1(C)Oc2ccc(Nc3nc(Nc4ccc5[nH]c(CN6CCOCC6)nc5c4)ncc3F)nc2NC1=O` [Compound 962, N4-(2,2-Dimethyl-3-oxo-4H-5-pyrido[1,4]oxazin-6-yl)-5-fluoro-N2-[2-(4-morpholinomethyl)-1H-benzimidazol-5-yl]-2,4-pyrimidinediamine], the IC50 under setting [7] was less than 10 µM. As for `CCn1cc2ccc(Nc3ncc(F)c(Nc4ccc(Cl)c(Cl)c4)n3)cc2n1` [Compound 760, N4-(3,4-Dichlorophenyl)-N2-(2-ethylindazol-6-yl)-5-fluoro-2,4-pyrimidinediamine], the IC50 runs as follows: under setting [4], less than 10 µM; under setting [2], less than 10 µM. On to `Cc1c(O)cccc1Nc1ncc(F)c(Nc2ccc3c(n2)NC(=O)C(C)(C)O3)n1` [Compound 1064, N4-(2,2-Dimethyl-3-oxo-4H-5-pyrid[1,4]oxazin-6-yl)-5-fluoro-N2-(3-hydroxy-2-methylphenyl)-2,4-pyrimidinediamine], for which, under setting [6], the IC50 is less than 10 µM. For the compound `CC1(C)Oc2ccc(Nc3nc(Nc4ccc5c(c4)nc(C(F)(F)F)n5CCCO)ncc3F)nc2NC1=O` [Compound 941, N4-(2,2-Dimethyl-3-oxo-4H-5-pyrido[1,4]oxazin-6-yl)-5-fluoro-N2-[1-(3-hydroxypropyl)-2-trifluoromethylbenzimidazol-5-yl]-2,4-pyrimidinediamine], the IC50 is less than 10 µM under setting [8] and less than 10 µM under setting [3]. For `CC1(C)Oc2ccc(Nc3nc(Nc4ccc5c(cnn5CCCN5C(=O)c6ccccc6C5=O)c4)ncc3F)cc2NC1=O` [Compound 817, N4-(2,2-Dimethyl-3-oxo-4H-benz[1,4]oxazin-6-yl)-5-fluoro-N2-[1-[3-(N-phthalimidopropyl)]indazol-5-yl]-2,4-pyrimidinediamine], the IC50 under setting [9] was less than 10 µM. In the case of `Cc1cc(Nc2ncc(F)c(NC3CCCC3)n2)cnc1N1CCN(C)CC1` [Compound 1240, N4-Cyclopentyl-5-fluoro-N2-[2-(4-methylpiperazino)-3-methylpyrid-5-yl]-2,4-pyrimidinediamine], the IC50 under setting [4] was less than 10 µM.

Turning to `CC1(C)Oc2ccc(Nc3nc(Nc4ccc5c(cnn5CCCO)c4)ncc3F)nc2NC1=O` [Compound 838, N4-(2,2-Dimethyl-3-oxo-4H-5-pyrid[1,4]oxazin-6-yl)-5-fluoro-N2-[1-(3-hydroxypropyl)indazol-5-yl]-2,4-pyrimidinediamine], the IC50 by setting is: (low cell density CHMC, tryptase release, 3 pt, read-out: LD Tryptase, CHMC, IgE, 3 pt) less than 10 µM; under setting [9], less than 10 µM. For `CCOCCCn1ncc2cc(Nc3ncc(F)c(Nc4ccc5c(n4)NC(=O)C(C)(C)O5)n3)ccc21` [Compound 875, N4-(2,2-Dimethyl-3-oxo-4H-5-pyrid[1,4]oxazin-6-yl)-N2-[1-(3-ethoxypropyl)indazol-5-yl]-5-fluoro-2,4-pyrimidinediamine], the IC50 is, setting by setting: under setting [8], less than 10 µM; under setting [3], less than 10 µM. Take `CNC(=O)COc1cccc(Nc2ncc(F)c(Nc3ccc(OC)c(N)n3)n2)c1` [Compound 547, N4-(2-Amino-3-methoxypyrid-6-yl)-5-fluoro-N2[3-(N-methylaminocarbonylmethyleneoxy)phenyl]-2,4-pyrimidinediamine]: the IC50 under setting [8] was less than 10 µM.
